PubChem BioAssay (NCI)
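Grown in 96-well plates, cells were treated for 48 hours with each compound at five concentrations. Insufficient inhibition: endpoint recorded as highest concentration tested. At the TGI there is no net growth.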

How the values were obtained:
Experiment in all cases: DTP human tumour cell line panel, 48 h
LOX IMVI melanoma = tested on: LOX IMVI melanoma
UACC-62 melanoma = tested on: UACC-62 melanoma
SW-620 colon = tested on: SW-620 colon
NCI-H460 lung = tested on: NCI-H460 lung
EKVX NSCLC = tested on: EKVX NSCLC
CCRF-CEM leukemia = tested on: CCRF-CEM leukemia
NCI-H23 lung = tested on: NCI-H23 lung
COLO 205 colon = tested on: COLO 205 colon
CAKI-1 renal = tested on: CAKI-1 renal
KM12 colon = tested on: KM12 colon

Structure (SMILES) | TGI (LOX IMVI melanoma) [µM] | TGI (UACC-62 melanoma) [µM] | TGI (SW-620 colon) [µM] | TGI (NCI-H460 lung) [µM] | TGI (EKVX NSCLC) [µM] | TGI (CCRF-CEM leukemia) [µM] | TGI (NCI-H23 lung) [µM] | TGI (COLO 205 colon) [µM] | TGI (CAKI-1 renal) [µM] | TGI (KM12 colon) [µM]
O=C1c2ccccc2-c2nc(-c3cccnc3)cc3c2c1nc1ccccc13 | > 100 | > 100 | > 100 | > 100 | > 100 | > 100 | > 100 | > 100 | > 100 | –
O=C(/C=C/c1ccc(O)c(O)c1)OCCc1cccc2ccccc12 | – | 15 | 18.9 | 29.9 | – | 11.2 | 14 | 20.5 | 20.7 | 23.4
COc1cc(/C=C/C(C)=O)ccc1OP(=O)(O)O | > 100 | > 100 | > 100 | > 100 | > 100 | – | > 100 | > 100 | > 100 | > 100
N#Cc1c(-c2ccccc2)/c(=C\O)c(=O)n2c1nc1ccccc12 | – | > 100 | > 100 | > 100 | > 100 | > 100 | > 100 | > 100 | > 100 | > 100
CCOP(=O)(Nc1ccc(-c2ccccc2)cc1)OCC | – | > 100 | – | > 100 | > 100 | – | > 100 | > 100 | > 100 | > 100
c1ccc(N=C2SC(=NNc3ccccc3)SC2=Nc2ccccc2)cc1 | > 100 | > 100 | > 100 | > 100 | > 100 | > 100 | > 100 | > 100 | > 100 | > 100
Cc1nc2c(o1)C(=O)c1ccccc1/C2=N/c1ccccn1 | 39.9 | 34.9 | 31.6 | 29.8 | 41.6 | 65.7 | 23.6 | > 100 | 47.9 | 42.2
CN1CCC2(CC1)C(=O)N(N1CCCCCC1)C(=O)N2c1ccccc1 | > 100 | > 100 | > 100 | > 100 | > 100 | > 100 | > 100 | > 100 | > 100 | > 100
COc1cccc2cc(C(N)=O)c(=N)oc12 | > 100 | > 100 | > 100 | > 100 | > 100 | > 100 | > 100 | > 100 | > 100 | > 100
C1COC(NC(C2CC2)C2CC2)=N1 | > 100 | > 100 | > 100 | > 100 | > 100 | > 100 | > 100 | > 100 | > 100 | > 100
CC(C)OP(=O)(CN(C)/C(F)=N\C(F)(F)F)OC(C)C | > 100 | > 100 | > 100 | > 100 | > 100 | > 100 | > 100 | > 100 | > 100 | > 100
COc1cc(OC)c2c(c1OC)OCC(Cc1ccc(O)cc1)C2=O (centres undefined) | > 25 | > 25 | > 25 | > 25 | – | > 25 | > 25 | > 25 | > 25 | > 25
NC1C/C(=N\O)c2c(I)sc(I)c21 (centres undefined) | 15.6 | 37.1 | 29.4 | 52 | 40.4 | > 100 | 30.2 | 40.6 | 28.6 | 27.7
C=C1c2c(cc3c(c2O)c(=O)c2ccccc2n3C)OC1(C)C | > 100 | > 100 | > 100 | > 100 | > 100 | > 100 | 27.3 | > 100 | > 100 | –
Cc1ccc(C(=O)C(C)N)cc1 (centres undefined) | > 100 | > 100 | > 100 | > 100 | > 100 | > 100 | > 100 | > 100 | > 100 | > 100
O=C(Cn1nc(Br)c(Br)c1Br)c1ccccc1 | 32.2 | 56.9 | > 100 | 63.9 | > 100 | 23 | 94.3 | 36.9 | 96.7 | > 100
CC(=O)Nc1ccc(CNc2cc(=O)[nH]c(=O)[nH]2)cc1 | > 100 | > 100 | > 100 | > 100 | > 100 | > 100 | > 100 | > 100 | > 100 | > 100
Cc1c(-c2cc3n(n2)C(c2cccs2)C(C#N)=C(c2ccccc2)N3)c(=O)n(-c2ccccc2)n1C (centres undefined) | > 100 | > 100 | > 100 | > 100 | > 100 | > 100 | > 100 | > 100 | 84.2 | > 100
O=c1[nH]c2ccc(CC(=S)N3CCOCC3)cc2s1 | > 100 | > 100 | > 100 | > 100 | > 100 | > 100 | > 100 | > 100 | > 100 | > 100
CCOP(=O)(/C=C\n1cnc2c(=O)n(C(C)=O)c(N)nc21)OCC | > 100 | > 100 | > 100 | > 100 | > 100 | > 100 | > 100 | > 100 | > 100 | > 100
O=C(c1cc(Cl)cc(Cl)c1)N(C(=S)OC12CC3CC(CC(C3)C1)C2)c1ccccc1 | – | > 100 | > 100 | > 100 | 69.1 | 49.9 | > 100 | 35.4 | > 100 | > 100
CC(C)C(C/C=C1/CC(CO)(COC(=O)CC(C(C)C)C(C)C)OC1=O)C(C)C (centres undefined) | 20.8 | 30.1 | 18.1 | 20 | 19.4 | 29.9 | 29.9 | 3.33 | 16.5 | 21.6
